Results as given in patent publication US10167257B2, “Indole derivatives for use in medicine” (IOmet Pharma Ltd., priority 2014, dated 2019).

Tests used:
[1] = biological target: T1, IDO (SKOV-3 cells) (Homo sapiens, UniProt P14902); assay: IDO cell-based assay (SKOV-3, IFNγ-induced), kynurenine production; details: SKOV-3 ovary adenocarcinoma cells, IFNγ 500 ng/ml, 500 μM L-Trp, 48 h, kynurenine by absorbance at 490 nm
T1 construct: This assay utilised cancer cells which expressed either TDO or IDO; host or cells: SKOV-3 ovary adenocarcinoma cells, IFNγ-induced
Excerpt: (§1) Two different types of assay were employed: 1. A TDO and IDO biochemical coupled assay which utilised recombinantly produced and purified TDO and IDO enzymes in combination with the enzyme formamidase. This coupled enzyme system allowed conversion of N-formylkynurenine produced by TDO or IDO activity to kynurenine which was then quantified by fluorescence following addition of Erhlich's Reagent. 2. A cell-based assay for detecting the effect of test compounds on kynurenine production in two different cancer cell types. This assay utilised cancer cells which expressed either TDO or IDO and as such was used as a means of testing compound activity at these two enzymes in a cell-based context. The protocols for these are set out below.
(§2) A172 human glioblastoma (ATCC) were grown in DMEM+2 mM L-glutamine medium supplemented with 10% foetal bovine serum and SKOV-3 ovary adenocarcinoma (ATCC) cells were grown in McCoys 5A+L-glutamax medium supplemented with 15% foetal bovine serum. On the day of assay, cells were detached using trypsin-EDTA (0.25% v/v), re-suspended in assay media (RPMI 1640 phenol red free+L-glutamine supplemented with 10% dialysed foetal bovine serum). A172 cells were seeded at 30K cells per well and SKOV-3 cells at 40K cells per well into 96-well plates containing test samples/vehicle control together with 500 μM L-Trp. Cells were then incubated for 48 h at 37° C., 5% CO2. In SK-OV-3 cells, IFNγ was also added at 500 ng/ml for the 48 h incubation in order to induce expression of IDO. Plates were centrifuged and the supernatant was removed and incubated for 5 min in the presence of 1% Erhlich's reagent. Kynurenine levels were then quantified by measuring absorbance at 490 nm.

[2] = biological target: T2, TDO (A172 cells) (Homo sapiens, UniProt P48775); assay: TDO cell-based assay (A172), kynurenine production; details: A172 human glioblastoma cells, 500 μM L-Trp, 48 h, kynurenine by absorbance at 490 nm
T2 construct: This assay utilised cancer cells which expressed either TDO or IDO; host or cells: A172 human glioblastoma cells
Excerpt: as §1, §2

T2 sequence (P48775 whole entry): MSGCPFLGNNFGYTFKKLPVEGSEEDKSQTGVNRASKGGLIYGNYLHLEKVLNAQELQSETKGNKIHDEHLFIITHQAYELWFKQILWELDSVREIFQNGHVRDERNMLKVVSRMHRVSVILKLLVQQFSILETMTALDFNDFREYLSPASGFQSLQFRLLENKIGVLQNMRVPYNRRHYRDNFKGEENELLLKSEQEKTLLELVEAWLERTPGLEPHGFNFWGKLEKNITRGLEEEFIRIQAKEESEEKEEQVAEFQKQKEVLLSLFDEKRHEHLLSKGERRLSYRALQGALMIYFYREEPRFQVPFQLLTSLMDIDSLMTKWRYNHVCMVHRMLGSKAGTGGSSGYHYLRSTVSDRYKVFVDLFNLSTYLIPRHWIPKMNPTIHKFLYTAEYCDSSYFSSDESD
T1 sequence (P14902 whole entry): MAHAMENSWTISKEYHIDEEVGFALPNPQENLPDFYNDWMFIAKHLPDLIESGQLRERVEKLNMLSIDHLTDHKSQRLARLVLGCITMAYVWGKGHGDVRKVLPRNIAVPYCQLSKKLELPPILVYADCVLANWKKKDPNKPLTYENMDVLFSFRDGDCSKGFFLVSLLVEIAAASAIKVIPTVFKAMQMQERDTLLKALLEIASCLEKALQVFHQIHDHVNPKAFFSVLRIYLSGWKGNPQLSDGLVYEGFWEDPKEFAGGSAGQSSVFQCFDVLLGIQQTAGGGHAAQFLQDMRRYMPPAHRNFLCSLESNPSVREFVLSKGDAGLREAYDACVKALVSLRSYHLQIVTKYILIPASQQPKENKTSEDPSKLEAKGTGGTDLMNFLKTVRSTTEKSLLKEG

Structure (SMILES) | IDO cellular assay (SKOV3) pIC50 [1] | TDO cellular assay (A172) pIC50 [2]
CC(C)(NC(=O)c1cc2cc(Cl)ccc2[nH]1)c1ccccc1 [Compound 68] | +++ (+++ = pIC50 ≥5.50) | ++ (++ = pIC50 5.00-<5.50)
CC(NC(=O)c1cc2cc(Cl)ccc2[nH]1)C1CCCCC1 (stereo not drawn) [Compound 69] | +++ (+++ = pIC50 ≥5.50) | ++ (++ = pIC50 5.00-<5.50)
COc1ccc(C(C)NC(=O)c2cc3cc(Cl)ccc3[nH]2)cc1 (stereo not drawn) [Compound 70] | +++ (+++ = pIC50 ≥5.50) | ++ (++ = pIC50 5.00-<5.50)
CC(C)C(C)NC(=O)c1cc2cc(Cl)ccc2[nH]1 (stereo not drawn) [Compound 71] | +++ (+++ = pIC50 ≥5.50) | + (+ = pIC50 4.50-<5.00)
C[C@@H](NC(=O)c1cc2cc(Cl)ccc2[nH]1)c1ccc(Cl)cc1 [Compound 72] | +++ (+++ = pIC50 ≥5.50) | − (− = pIC50 <4.50)
C[C@@H](NC(=O)c1nc2ccccc2o1)c1ccccc1 [Compound 73] | + (+ = pIC50 4.50-<5.00) | − (− = pIC50 <4.50)
O=C(NC1CCOc2ccccc21)c1cc2ccccc2[nH]1 (stereo not drawn) [Compound 74] | + (+ = pIC50 4.50-<5.00) | − (− = pIC50 <4.50)
C[C@H](NC(=O)c1cc2cc(Cl)ccc2[nH]1)c1ccc(Cl)cc1 [Compound 75] | +++ (+++ = pIC50 ≥5.50) | − (− = pIC50 <4.50)
C[C@H](NC(=O)c1nc2ccccc2o1)c1ccccc1 [Compound 76] | + (+ = pIC50 4.50-<5.00) | − (− = pIC50 <4.50)
Cc1cccc2[nH]c(C(=O)NC(C)c3ccccc3)cc12 (stereo not drawn) [Compound 77] | +++ (+++ = pIC50 ≥5.50) | + (+ = pIC50 4.50-<5.00)
Cc1ccc2cc(C(=O)NC(C)c3ccccc3)[nH]c2c1 (stereo not drawn) [Compound 78] | ++ (++ = pIC50 5.00-<5.50) | + (+ = pIC50 4.50-<5.00)
CC(NC(=O)c1cc2cnccc2[nH]1)c1ccccc1 (stereo not drawn) [Compound 79] | + (+ = pIC50 4.50-<5.00) | − (− = pIC50 <4.50)
CC(NC(=O)c1cc2cccnc2[nH]1)c1ccccc1 (stereo not drawn) [Compound 80] | ++ (++ = pIC50 5.00-<5.50) | − (− = pIC50 <4.50)
CC(NC(=O)c1cc2ccncc2[nH]1)c1ccccc1 (stereo not drawn) [Compound 81] | + (+ = pIC50 4.50-<5.00) | − (− = pIC50 <4.50)
CC(NC(=O)c1cc2cc(C#N)ccc2[nH]1)c1ccccc1 (stereo not drawn) [Compound 82] | +++ (+++ = pIC50 ≥5.50) | +++ (+++ = pIC50 ≥5.50)
CC(NC(=O)c1cc2cc(Cl)ccc2[nH]1)c1ccc(S(C)(=O)=O)cc1 (stereo not drawn) [Compound 84] | +++ (+++ = pIC50 ≥5.50) | ++ (++ = pIC50 5.00-<5.50)
CC(NC(=O)c1cc2ccc(C#N)cc2[nH]1)c1ccccc1 (stereo not drawn) [Compound 85] | ++ (++ = pIC50 5.00-<5.50) | ++ (++ = pIC50 5.00-<5.50)
CC(Cc1ccccc1)NC(=O)c1cc2cc(Cl)ccc2[nH]1 (stereo not drawn) [Compound 86] | +++ (+++ = pIC50 ≥5.50) | +++ (+++ = pIC50 ≥5.50)
CC(NC(=O)c1cc2cc(Cl)ccc2[nH]1)c1ccc(N(C)C)cc1 (stereo not drawn) [Compound 87] | +++ (+++ = pIC50 ≥5.50) | + (+ = pIC50 4.50-<5.00)
CC(NC(=O)c1cc2cc(C(N)=O)ccc2[nH]1)c1ccccc1 (stereo not drawn) [Compound 88] | − (− = pIC50 <4.50) | +++ (+++ = pIC50 ≥5.50)
CC(NC(=O)c1cc2ccc(C(N)=O)cc2[nH]1)c1ccccc1 (stereo not drawn) [Compound 89] | − (− = pIC50 <4.50) | +++ (+++ = pIC50 ≥5.50)
CC(NC(=O)c1cc2cc(Cl)ccc2[nH]1)c1ccc(C(=O)N2CCOCC2)cc1 (stereo not drawn) [Compound 90] | +++ (+++ = pIC50 ≥5.50) | − (− = pIC50 <4.50)
CC(NC(=O)c1cc2cc(Cl)ccc2[nH]1)c1ccc(C(=O)N2CCN(C)CC2)cc1 (stereo not drawn) [Compound 91] | + (+ = pIC50 4.50-<5.00) | − (− = pIC50 <4.50)

Structure (SMILES) | IDO cellular assay (SKOV3) pIC50 [1] | TDO cellular assay (A172) pIC50 [2]
O=C(NC(CO)c1ccccc1)c1cc2cc(Cl)ccc2[nH]1 (stereo not drawn) [Compound 92] | +++ (+++ = pIC50 ≥5.50) | + (+ = pIC50 4.50-<5.00)
COCCN(C)C(=O)c1ccc(C(C)NC(=O)c2cc3cc(Cl)ccc3[nH]2)cc1 (stereo not drawn) [Compound 93] | +++ (+++ = pIC50 ≥5.50) | + (+ = pIC50 4.50-<5.00)
CC(NC(=O)c1cc2cc(Cl)ccc2[nH]1)C1CC1 (stereo not drawn) [Compound 94] | ++ (++ = pIC50 5.00-<5.50) | + (+ = pIC50 4.50-<5.00)
CC(NC(=O)c1cc2cc(Cl)ccc2[nH]1)c1ccc(N2CCN(C)CC2)cc1 (stereo not drawn) [Compound 95] | + (+ = pIC50 4.50-<5.00) | − (− = pIC50 <4.50)
CC(NC(=O)c1cc2cc(Cl)ccc2[nH]1)c1ncc[nH]1 (stereo not drawn) [Compound 96] | + (+ = pIC50 4.50-<5.00) | − (− = pIC50 <4.50)
CC(NC(=O)c1cc2cc(Cl)ccc2[nH]1)c1cnoc1 (stereo not drawn) [Compound 97] | ++ (++ = pIC50 5.00-<5.50) | + (+ = pIC50 4.50-<5.00)
CC(NC(=O)c1cc2cc(Cl)ccc2[nH]1)C1CCCC1 (stereo not drawn) [Compound 98] | +++ (+++ = pIC50 ≥5.50) | − (− = pIC50 <4.50)
O=C(NC(c1ccccc1)C1CC1)c1cc2cc(Cl)ccc2[nH]1 (stereo not drawn) [Compound 99] | +++ (+++ = pIC50 ≥5.50) | + (+ = pIC50 4.50-<5.00)
COCCOc1ccc(C(C)NC(=O)c2cc3cc(Cl)ccc3[nH]2)cc1 (stereo not drawn) [Compound 100] | +++ (+++ = pIC50 ≥5.50) | ++ (++ = pIC50 5.00-<5.50)
CC(C)C(NC(=O)c1cc2cc(Cl)ccc2[nH]1)c1ccccc1 (stereo not drawn) [Compound 101] | +++ (+++ = pIC50 ≥5.50) | + (+ = pIC50 4.50-<5.00)
CC(NC(=O)c1cc2cc(Cl)ccc2[nH]1)c1ccc(OCCN(C)C)cc1 (stereo not drawn) [Compound 102] | + (+ = pIC50 4.50-<5.00) | − (− = pIC50 <4.50)
CC(NC(=O)c1cc2cc(Cl)ccc2[nH]1)C1CCOCC1 (stereo not drawn) [Compound 103] | +++ (+++ = pIC50 ≥5.50) | − (− = pIC50 <4.50)
CC(NC(=O)c1cc2cc(Cl)ccc2[nH]1)c1ncco1 (stereo not drawn) [Compound 104] | ++ (++ = pIC50 5.00-<5.50) | + (+ = pIC50 4.50-<5.00)
CC(=O)N1CCC(C(C)NC(=O)c2cc3cc(Cl)ccc3[nH]2)CC1 (stereo not drawn) [Compound 105] | +++ (+++ = pIC50 ≥5.50) | − (− = pIC50 <4.50)
CNC(=O)c1ccc2[nH]c(C(=O)NC(C)c3ccccc3)cc2c1 (stereo not drawn) [Compound 106] | + (+ = pIC50 4.50-<5.00) | − (− = pIC50 <4.50)
Cc1ccnc(C(NC(=O)c2cc3cc(Cl)ccc3[nH]2)C2CC2)c1 (stereo not drawn) [Compound 107] | ++ (++ = pIC50 5.00-<5.50) | − (− = pIC50 <4.50)
O=C(NCC1CCCN(C(=O)C2CC2)C1)c1cc2cc(Cl)ccc2[nH]1 (stereo not drawn) [Compound 108] | ++ (++ = pIC50 5.00-<5.50) | − (− = pIC50 <4.50)
COc1cccc(-c2cc(CNC(=O)c3cc4cc(Cl)ccc4[nH]3)on2)c1 [Compound 109] | ++ (++ = pIC50 5.00-<5.50) | − (− = pIC50 <4.50)
O=C(NCCc1nccs1)c1cc2cc(Cl)ccc2[nH]1 [Compound 110] | ++ (++ = pIC50 5.00-<5.50) | − (− = pIC50 <4.50)
CC(NC(=O)c1cc2cc(Cl)ccc2[nH]1)C1CCN(S(C)(=O)=O)CC1 (stereo not drawn) [Compound 111] | ++ (++ = pIC50 5.00-<5.50) | − (− = pIC50 <4.50)
COc1cccc(-n2cc(CNC(=O)c3cc4cc(Cl)ccc4[nH]3)cn2)c1 [Compound 112] | +++ (+++ = pIC50 ≥5.50) | − (− = pIC50 <4.50)
COc1ccc(-c2noc(CNC(=O)c3cc4cc(Cl)ccc4[nH]3)n2)cc1OC [Compound 113] | +++ (+++ = pIC50 ≥5.50) | − (− = pIC50 <4.50)
